Laboratory results as given in patent publication US20210024499A1, “OXIDIZED BIS(3-INDOLYL)METHANES AND USES THEREOF” (Sanford Burnam Prebys Medical Discovery Institute, priority 2018, published 2021).

Experiments:
Nur77-LBD = target: T1, Nur77-LBD (Homo sapiens, UniProt P22736); experiment: Surface plasmon resonance (SPR) binding to Nur77-LBD; details: Nur77-LBD protein, 25° C.
T1 construct: Protein spectra of purified Nur77-LBD at temperature 50° C. and above changed substantially; His (N); made in house
Experimental: The binding kinetics between Nur77-LBD and test compounds was analyzed at 25° C. on a BlAcore T200 machine with CMS chips (GE Healthcare). PBSP was used for all measurements. For SPR measurements, Nur77-LBD proteins were purified. A blank channel was used as negative control. About 10,000 response units of Nur77-LBD were immobilized on the chips. When the data collection was finished in each cycle, the sensor surface was regenerated with Glycine-HCl 2.5. A serial of concentrations ranging from 0.15 to 5.0 μM were designed for the experiment. Sensograms were fit globally with BIAcore T200 analysis using 1:1 Langumuir binding mode.

HCT116 cancer cells = experiment: Cell viability (MTT) assay, HCT116; format: cell-based; details: Homo sapiens, HCT-116; inhibiting the growth of HCT116 cancer cells, cell viability assay (Table 5)
Experimental: Cell viability was analyzed by using a colorimetric 3-(4,5-dimethylthiazol-[…]2-yl)-2,5-diphenyletetrazolium Bromide (MTT) assay that determines mitochondrial dehydrogenase activities in the living cells with a colorimetric method. Cells treated with test compounds were incubated with MTT and their effect on the viability of the cells was assayed by the ability of treated cells to reduce the yellow tetrazolium dye MTT to its insoluble formazan, which has a purple color. […]

Bcl-2−/−HeLa cells = experiment: Mitochondrial membrane potential (JC1), Bcl-2-/- cells of the MEF study; format: cell-based; details: Bcl-2−/−HeLa cells as printed, 0.5 μM, 6 h
Experimental: Loss of mitochondrial membrane potential (Avm) represents one of the hallmarks of apoptosis. A JC-1 probe was employed to measure mitochondrial depolarization in cancer cells. MDA-MB-231 breast cancer cells were treated with different concentration of test compounds for 6 hours. JC-1 staining solution (5 μg/ml) was added at 37° C. for 20 min. After washing with PBS twice, mitochondrial membrane potentials were monitored by determining the relative amounts of dual emission from a multiple fluorescence reader. The fluorescence in cells was quantitatively analyzed by flow cytometry. Mitochondrial depolarization is depicted by an increase in the green/red fluorescence intensity ratio. ROS were monitored with the oxiadtion-senstive fluorescent probe 2′7′-dichlorodihydroflurescenin diacetate (DCF-DA).
In addition, Bcl-2^−/−MEF cells were more resistant than the parental MEF cells to Compound 1 in its induction of the mitochondrial membrane potential loss measured by JC1 staining and in the release of mitochondrial ROS (as performed in Example A-12).

[1] = test system: mTOR markers p-S6 and p-4EBP1; experiment: mTOR inhibition: expression of mTOR markers; format: cell-based; details: MDA-MB-231 cells, 6 hours
Bcl-2−/−MEFs = experiment: PARP cleavage, Bcl-2-/- MEFs; format: cell-based, mouse; details: 0.5 μM
From the text: The apoptotic effect of Compound 1 was also examined in mouse embryonic fibroblast (MEF) and MEF lacking Bcl-2 (Bcl-2^−/−MEF). […] Apoptotic cells were counted in 200 cells.

PyMT mammary tumor = experiment: MMTV-PyMT mice breast cancer model; format: in vivo; details: for growth of PyMT mammary tumor: 18 days
Experimental: Female MMTV-PyMT mice of 12 weeks old were randomly divided into two groups (n=7 each), treated with a daily oral dose of test compound for 18 days. Standard histopathological analysis of tumor tissue was performed (see Example A-19). Test compounds were dissolved in DMSO and diluted with normal saline containing 5.0% (V/V) Tween-80 to a final concentration 0.5 mg/ml. Normal saline with DMSO and 5.0% Tween-80 was employed as the vehicle control.
4 μm thick sections were deparaffinized and rehydrated using xylene and a graded series of ethanol (100, 95, 85, 75, 50%), followed by washing in PBS. Antigen retrieval was performed in 10 mM sodium citrate buffer (pH 6.0), which was microwaved at 100° C. for 20 minutes. After rinsed twice in PBS, sections were blocked at room temperature for 1 hour by using 10% normal goat serum, followed by incubation with anti-ki-67, anti-cleaved-caspase-3, overnight (at least 17 hours) at 4° C. Colors were developed with a DAB horseradish peroxidase color development kit.

[2] = test system: Nur77 interaction with Bcl-2; experiment: Cell-based co-immunoprecipitation of Nur77 and Bcl-2
Experimental: Western blotting and co-immunopreciptations (co-IP) were performed. Briefly, cells transfected with or without expression vectors for Nur77 and Bcl-2 were treated with test compounds for 2 hours. The effect of compounds on the interaction of endogenous or transfected Nur77 and Bcl-2 was analyzed by co-immunoprecipitation using appropriate antibodies. Proteins immunoprecipitated from cells by an appropriate anti-Nur77 or anti-Bcl-2 antibody were analyzed by Western blotting.

MDA-MB-231 cells = experiment: Flow cytometry-based Annexin V/PI apoptosis assay, MDA-MB-231; format: cell-based; details: 1 μM, 6 hours
HeLa cells [3] = experiment: PARP cleavage assay (Western blotting), HeLa; format: cell-based; details: 6 hours
From the text: Compound 1a had no effect under the same conditions (FIG. 1A). […] Compound 1a, 28a, 47a, 48a, 73a, 39a, 70a, 103a, 89a and 88a had no effect under the same conditions (FIG. 3B-C).

[4] = test system: non-transfected HEK293T cells; experiment: Apoptosis in non-transfected HEK293T cells (confocal microscopy); format: cell-based
From the text: The ligand-binding domain (LBD) of Nur77, Nur77-LBD, was transfected into HEK293T cells. Transfection of Nur77-LBD enhanced the apoptotic effect of Compound 1, with 36% of the transfected HEK293T cells undergoing apoptosis, while 4.5% of the non-transfected cells were apoptotic, as measured by confocal microscopy.

HeLa cells [5] = experiment: DAPI staining for apoptosis, HeLa; format: cell-based
Experimental: In HeLa cells, about 60% apoptotic cells were detected when cells were treated with Compound 1 compared to less than 5% when cells were not treated with Compound 1. Apoptotic cells were counted in 200 cells.
We next examined whether Nur77 mitochondrial targeting induced by the combination of Compound 1/B12030 was apoptotic. HeLa cells were treated with either Compound 1 or BI2030 alone or in combination and apoptosis was examined by DAPI staining. About 7.2% or 9.1% of cells were apoptotic when treated with 0.5 μM Compound 1 or 1 μM BI2030, respectively, for 2 hours. […] Apoptotic cells were counted in 200 cells.

T1 sequence (P22736 360-595 limits assumed): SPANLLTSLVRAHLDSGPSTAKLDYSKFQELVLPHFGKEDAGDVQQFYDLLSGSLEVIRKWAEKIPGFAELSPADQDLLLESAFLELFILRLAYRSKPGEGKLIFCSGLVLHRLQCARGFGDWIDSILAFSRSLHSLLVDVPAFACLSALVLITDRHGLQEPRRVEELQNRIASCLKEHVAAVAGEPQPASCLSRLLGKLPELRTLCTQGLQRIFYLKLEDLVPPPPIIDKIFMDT

In the case of `FC(F)(F)c1ccc([C+](c2c[nH]c3ccccc23)c2c[nH]c3ccccc23)cc1` [Compound 1, Bis(1H-indol-3-yl)(4-(trifluoromethyl)phenyl)methylium methanesulfonate], the Kd (Nur77-LBD) is reported as 100 nM, the IC50 (HCT116 cancer cells) is reported as < 500 nM and the “JC1 green to red ratio (control 100%)” value (Bcl-2−/−HeLa cells) is reported as 150%. For the same compound, the “expression levels of mTOR marker p-4EBP1” value ([1]; 0.75 μM) was “reduced the expression levels”, the “expression levels of mTOR markers p-S6 and p-4EBP1” value ([1]; 1 μM) was “reduced the expression levels” and the PARP cleavage (Bcl-2−/−MEFs) was “no apparent effect”. The “expression levels of mTOR markers p-S6 and p-mTOR in tumor” value (PyMT mammary tumor; 3 mg/kg) was “markedly reduced”, the “growth of PyMT mammary tumor” value (PyMT mammary tumor; 3 mg/kg daily oral) was “inhibited the growth of PyMT mammary tumor” and the “growth of PyMT mammary tumor” value (PyMT mammary tumor; 5 mg/kg daily oral) was “inhibited the growth of PyMT mammary tumor”. For the same compound, the “expression levels of proliferation markers PCNA and Ki67 in tumor tissues” value (PyMT mammary tumor; 5 mg/kg, Western blotting) was “markedly reduced”, the “cleaved caspase 3 in tumor tissue specimens” value (PyMT mammary tumor; 5 mg/kg, immunostaining) was “enhanced expression of cleaved caspase 3” and the “Nur77 interaction with Bcl-2 (Co-IP)” value ([2]; Nur77 transfected in HeLa cells) was “interacted with Bcl-2”. The “endogenous Nur77 immunoprecipitated with endogenous Bcl-2” value ([2]; anti-Bcl-2 antibody) was “specifically immunoprecipitated together with endogenous Bcl-2”, the “Nur77 or Nur77-LBD interaction with Bcl-2 (Co-IP)” value ([2]; transfected in HEK293T cells) was “interacted with Bcl-2” and the “apoptotic cells (Annexin V/PI)” value (MDA-MB-231 cells) was “about 31.63%”. The “concentration inducing PARP cleavage (dose dependent study)” value (HeLa cells [3]) was “submicromolar concentrations”, the apoptotic cells [4] was 4.5% and the “apoptotic cells (DAPI staining), single agent” value (HeLa cells [5]; 0.5 μM Compound 1 or 1 μM BI2030, 2 hours) was “About 7.2%”. The “apoptotic cells (DAPI staining)” value (HeLa cells [5]; 0.5 μM, 6 hours, counted in 200 cells) was “about 60%” and the “apoptotic cells (DAPI staining), co-treated with Compound 1 and BI2030” value (HeLa cells [5]; co-treatment with BI2030, 2 hours) was “about 35.5%”.
